According to the supplement of paper PMC10307832:

Tests used:
Assay in all cases: relative viability (nuclei count vs DMSO), 5 days (fraction); higher = more cells survive
201T = system: 201T
In short: (§1)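 Nuclei were stained with Hoechst during a one-step fixation (final 0.05% Triton X-100, 1% formaldehyde, 1 ug/ml Hoechst) carried out 5 days after dosing, then counted on 4× images. The cells, lung cancer lines in 1536-well plates, had been dosed by pin tool the day after seeding with one drug alone or a fixed anchor-drug dose plus five library-drug doses (not always all listed) in √10 steps. Relative viability is the nuclei count in treated wells divided by that in vehicle wells, and each value is the median of duplicate plates.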

ABC-1 = system: ABC-1
In short: as §1

EMC-BAC-2 = system: EMC-BAC-2
In short: as §1

EPLC-272H = system: EPLC-272H
In short: as §1

LCLC-103H = system: LCLC-103H
In short: as §1

LOU-NH91 = system: LOU-NH91
In short: as §1

NCI-H1395 = system: NCI-H1395
In short: as §1

NCI-H1437 = system: NCI-H1437
In short: as §1

NCI-H1651 = system: NCI-H1651
In short: as §1

NCI-H1734 = system: NCI-H1734
In short: as §1

NCI-H1792 = system: NCI-H1792
In short: as §1

NCI-H1793 = system: NCI-H1793
In short: as §1

NCI-H1915 = system: NCI-H1915
In short: as §1

NCI-H1975 = system: NCI-H1975
In short: as §1

NCI-H2023 = system: NCI-H2023
In short: as §1

NCI-H23 = system: NCI-H23
In short: as §1

NCI-H2405 = system: NCI-H2405
In short: as §1

NCI-H647 = system: NCI-H647
In short: as §1

NCI-H661 = system: NCI-H661
In short: as §1

RERF-LC-KJ = system: RERF-LC-KJ
In short: as §1

SK-LU-1 = system: SK-LU-1
In short: as §1

UMC-11 = system: UMC-11
In short: as §1

For `Cc1cnc(-c2cnc(NCCNc3ccc(C#N)cn3)nc2-c2ccc(Cl)cc2Cl)[nH]1` + CCNC(=O)c1noc(-c2cc(C(C)C)c(O)cc2O)c1-c1ccc(CN2CCOCC2)cc1 [Luminespib] (partner 0.01 µM), the relative viability (201T; first compound 0.08 µM) was 1.11, the relative viability (201T; first compound 0.8 µM) was 1.06 and the relative viability (201T; first compound 2.53 µM) was 1.01. It also gave a relative viability (ABC-1; first compound 0.08 µM) of 0.591, a relative viability (ABC-1; first compound 2.53 µM) of 0.82 and a relative viability (EMC-BAC-2; first compound 0.08 µM) of 1.25. It also gave a relative viability (EMC-BAC-2; first compound 0.253 µM) of 1.05, a relative viability (EMC-BAC-2; first compound 0.8 µM) of 1.23 and a relative viability (EMC-BAC-2; first compound 2.53 µM) of 1.09. For the same compound, the relative viability (EPLC-272H; first compound 0.08 µM) was 0.308, the relative viability (EPLC-272H; first compound 0.253 µM) was 0.313 and the relative viability (EPLC-272H; first compound 0.8 µM) was 0.209. The relative viability (EPLC-272H; first compound 2.53 µM) was 0.192, the relative viability (LCLC-103H; first compound 0.08 µM) was 1.08 and the relative viability (LCLC-103H; first compound 0.253 µM) was 0.865. For the same compound, the relative viability (LCLC-103H; first compound 0.8 µM) was 0.933, the relative viability (LCLC-103H; first compound 2.53 µM) was 0.826 and the relative viability (LOU-NH91; first compound 0.08 µM) was 0.367. The relative viability (LOU-NH91; first compound 0.253 µM) was 0.369, the relative viability (LOU-NH91; first compound 0.8 µM) was 0.322 and the relative viability (LOU-NH91; first compound 2.53 µM) was 0.376. For the same compound, the relative viability (NCI-H1395; first compound 0.08 µM) was 0.627, the relative viability (NCI-H1395; first compound 0.253 µM) was 0.708 and the relative viability (NCI-H1395; first compound 0.8 µM) was 0.65. It also gave a relative viability (NCI-H1395; first compound 2.53 µM) of 0.677, a relative viability (NCI-H1437; first compound 0.08 µM) of 1.06 and a relative viability (NCI-H1437; first compound 0.253 µM) of 1.06. It also gave a relative viability (NCI-H1437; first compound 0.8 µM) of 1.14, a relative viability (NCI-H1437; first compound 2.53 µM) of 1.14 and a relative viability (NCI-H1651; first compound 0.08 µM) of 1.03. For the same compound, the relative viability (NCI-H1651; first compound 0.253 µM) was 0.864, the relative viability (NCI-H1651; first compound 0.8 µM) was 0.762 and the relative viability (NCI-H1651; first compound 2.53 µM) was 0.883. It also gave a relative viability (NCI-H1734; first compound 0.08 µM) of 0.208, a relative viability (NCI-H1734; first compound 0.253 µM) of 0.199 and a relative viability (NCI-H1734; first compound 0.8 µM) of 0.144. For the same compound, the relative viability (NCI-H1734; first compound 2.53 µM) was 0.23, the relative viability (NCI-H1792; first compound 0.08 µM) was 0.668 and the relative viability (NCI-H1792; first compound 0.253 µM) was 0.432. It also gave a relative viability (NCI-H1792; first compound 0.8 µM) of 0.493, a relative viability (NCI-H1792; first compound 2.53 µM) of 0.392 and a relative viability (NCI-H1793; first compound 0.08 µM) of 0.18. It also gave a relative viability (NCI-H1793; first compound 0.253 µM) of 0.173, a relative viability (NCI-H1793; first compound 0.8 µM) of 0.147 and a relative viability (NCI-H1793; first compound 2.53 µM) of 0.201. The relative viability (NCI-H1915; first compound 0.08 µM) was 0.808, the relative viability (NCI-H1915; first compound 0.253 µM) was 0.587 and the relative viability (NCI-H1915; first compound 0.8 µM) was 0.753. For the same compound, the relative viability (NCI-H1915; first compound 2.53 µM) was 0.779, the relative viability (NCI-H1975; first compound 0.08 µM) was 0.21 and the relative viability (NCI-H1975; first compound 0.253 µM) was 0.252. It also gave a relative viability (NCI-H1975; first compound 0.8 µM) of 0.191, a relative viability (NCI-H1975; first compound 2.53 µM) of 0.189 and a relative viability (NCI-H2023; first compound 0.08 µM) of 0.872. It also gave a relative viability (NCI-H2023; first compound 0.253 µM) of 0.751, a relative viability (NCI-H2023; first compound 0.8 µM) of 0.863 and a relative viability (NCI-H2023; first compound 2.53 µM) of 0.774. It also gave a relative viability (NCI-H23; first compound 0.08 µM) of 0.22, a relative viability (NCI-H23; first compound 0.253 µM) of 0.218 and a relative viability (NCI-H23; first compound 0.8 µM) of 0.216. It also gave a relative viability (NCI-H23; first compound 2.53 µM) of 0.209, a relative viability (NCI-H2405; first compound 0.08 µM) of 0.763 and a relative viability (NCI-H2405; first compound 0.253 µM) of 0.552. It also gave a relative viability (NCI-H2405; first compound 0.8 µM) of 0.822, a relative viability (NCI-H2405; first compound 2.53 µM) of 0.574 and a relative viability (NCI-H647; first compound 0.08 µM) of 0.144. It also gave a relative viability (NCI-H647; first compound 0.253 µM) of 0.131, a relative viability (NCI-H647; first compound 0.8 µM) of 0.135 and a relative viability (NCI-H647; first compound 2.53 µM) of 0.166. For the same compound, the relative viability (NCI-H661; first compound 0.08 µM) was 0.889, the relative viability (NCI-H661; first compound 0.253 µM) was 0.881 and the relative viability (NCI-H661; first compound 0.8 µM) was 0.904. For the same compound, the relative viability (NCI-H661; first compound 2.53 µM) was 0.829, the relative viability (RERF-LC-KJ; first compound 0.08 µM) was 1.23 and the relative viability (RERF-LC-KJ; first compound 0.253 µM) was 1.12. For the same compound, the relative viability (RERF-LC-KJ; first compound 0.8 µM) was 1.27, the relative viability (RERF-LC-KJ; first compound 2.53 µM) was 1.32 and the relative viability (SK-LU-1; first compound 0.08 µM) was 0.196. The relative viability (SK-LU-1; first compound 0.253 µM) was 0.238, the relative viability (SK-LU-1; first compound 0.8 µM) was 0.186 and the relative viability (SK-LU-1; first compound 2.53 µM) was 0.213. For the same compound, the relative viability (UMC-11; first compound 0.08 µM) was 1.02, the relative viability (UMC-11; first compound 0.253 µM) was 0.934 and the relative viability (UMC-11; first compound 0.8 µM) was 1.03. It also gave a relative viability (UMC-11; first compound 2.53 µM) of 0.995.
